Read-outs that look alike come from different tables or passages of the source. Values belong to the molecule of their own block, whether it stands above or below them.
What was measured:
[1] = other dyes applied to cancer detection and localization; cited from earlier work
[2] = Fluorescence spectra and quantum yield in pH 7.4, 0.1 M PBS; type: physicochemical; settings: for fluorescence quantum yield Φ: quinine sulfate as standard
Text: (§1) was used to examine possible quinone propionic acid quenchers and 1,8-naphthalimide reporters as well as linkers between the OeT quencher and the NI reporter, so as to ensure that quenching is thermodynamically feasible and efficient. In this equation, ED is the redox potential of the donor and EA that of the acceptor, ΔG00 is the energy of the first excited singlet state of the reporter, and e^2/εd is the Coulombic interaction energy of the ion pair, known to be 0.06 eV. The energy of the first excited singlet state of NI was measured to be 3.06 eV. […] The quinone was attached to the naphthalimide via an N-methylethanolamine linker through a carbamate to the amine of the naphthalimide ring. This linker imparts three properties on Q3NI: the linker is sufficiently short to allow for a high probability of electron transfer, the electron-withdrawing carbamate yields a favorable ΔGPeT, and the presence of the tertiary amide provides enhanced environmental stability. As a result, the fluorescence of Q3NI in pH 7.4, 0.1 M PBS is effectively quenched in comparison to that of the free NI reporter, as noted by their spectra in FIGS. 3B and 3C and respective fluorescence quantum yields Φ of 0.007 and 0.23 obtained using quinine sulfate as standard. […] The 33-fold fluorescence enhancement for NI versus Q3NI and very large Stokes shift of 116 nm (λmax abs=374 run, λmax em=490 nm) bode well for use of Q3NI as a multifunctional turn-on probe for sensing and imaging applications that utilize reductive stimuli capable of initiating removal of the reduced quinone group.

[3] = Voltammetric redox potentials and Rehm-Weller calculation of PeT energy; type: physicochemical
Text: Embodiments of the present invention provide a probe (Q3NI) having fluorescence signal of a naphthalimide reporter quenched via oxidative electron transfer (OeT) by a covalently attached quinone propionic acid motif. See, e.g. FIG. 3A. The Q3NI provides the novel mechanism of reporter quenching by carefully tuning the electronic and optical properties of the quinone (Q3) OeT quencher and the naphthalimide reporter (NI), due to extant naphthalimide reporters that are quenched by reductive electron-transfer (ReT). The Rehm-Weller equation,
as §1

[4] = pKa of secondary amine of reporter; type: physicochemical
fixed samples = test: Reporter retention in paraformaldehyde-fixed cell samples; type: cell-based; settings: paraformaldehyde fixing; fixed samples stored for 10 months in the laboratory ambient
Text: (§2) There was no indication of reporter in the nucleus, pointing to the lack of NQOI there; this is in contrast to previous work using immunohistochemical staining of penneabilized, fixed cells. The average cytosolic signal was 9 times higher in A549 cells versus NQOI-negative H596 cells, while it was 23 times higher in HT-29 cells compared to the NQOI-negative H596 cells. […] Accumulation of the basic (secondary amine pKa ˜11) NI occurred in acidic late endosomal and lysosomal vesicles, a beneficial outcome that leads to enhanced intracellular retention of NI. […] Collectively, there is great potential for use of our probe/reporter system for ex vivo quantitative analysis of excised tumor cells and long-term in vivo and in vitro imaging.

[5] = target: human NAD(P)Rquinone oxidoreductase isozyme 1 (hNQO1) (Homo sapiens, UniProt P15559); test: Michaelis-Menten kinetics of hNQO1 activation of the probe (NI reporter production); type: biochemical
Chain of human NAD(P)Rquinone oxidoreductase isozyme 1 (hNQO1) (P15559 whole entry): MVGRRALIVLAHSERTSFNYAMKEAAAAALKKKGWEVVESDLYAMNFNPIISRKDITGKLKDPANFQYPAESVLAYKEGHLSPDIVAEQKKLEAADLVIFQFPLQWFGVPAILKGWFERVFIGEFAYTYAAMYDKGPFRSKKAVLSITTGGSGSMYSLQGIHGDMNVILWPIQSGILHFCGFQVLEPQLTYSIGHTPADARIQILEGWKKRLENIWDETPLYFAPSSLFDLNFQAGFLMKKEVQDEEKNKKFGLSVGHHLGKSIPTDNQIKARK
Text: In embodiments of the present in invention hNQO 1 reduces fluorescent probes cloked with a quinone moiety. In embodiments of the present invention, Q3NI is a probe capable of activation by hNQO1 to yield the NI reporter at a significant rate. Apparent kinetic parameters of Q3NI were obtained from Michaelis-Menten kinetic treatment of the time-dependent NI reporter production, namely the Michaelis constant (Km), maximum velocity (Vmax), catalytic constant (kcat), and substrate specificity (kcat/Km). The high rate of NI reporter production under in vitro conditions is readily apparent in FIG. 7; after 5 min, a fluorescent signal has been attained that is 22% of the maximum achievable, yielding 2.2×10^−7 M of released reporter.

A549 [6] = test: Unaided-eye visualization of cultured cells with handheld 365 nm lamp; type: cell-based, human; settings: 2×10^−5 M Q3NI, 10 min incubation; 5.72×10^6 total cells
Method: (§3) Embodiments of the present invention may allow for cancer cells to be rapidly visualized and differentiated. […] After a 10 min incubation period in a cell culture solution containing 2×10^−5 M Q3NI, it was possible to differentiate between the various substrate-cultured cells (4.84 cm^2) using only a handheld fluorescent lamp emitting at 365 nm and the unaided eye. […] The ability to visually determine the presence of hNQO1 in a small number of cells is due to the marked difference in fluorescence from the unquenched NI reporter (Φ=0.23) and quenched Q3NI probe (Φ=0.007) and the large Stokes shift of the NI reporter that results in fluorescence emission in the visible spectrum (400 nm to ˜600 nm). These outcomes point to use of the Q3NI probe sensor in the real-time, visible (without the aid of imaging equipment), and accurate determination of tumor/healthy tissue borders so as to allow for surgical resection of tumors with small foci.

H596 [7] = test: as above; type: cell-based, human; settings: 2×10^−5 M Q3NI, 10 min incubation; 3.96×10^6 total cells
Method: as §3

HT-29 [8] = test: as above; type: cell-based, human; settings: 2×10^−5 M Q3NI, 10 min incubation; 3.69×10^6 total cells
Method: as §3

A549 [9] = test: Flow cytometry assay of Q3NI activation; type: cell-based, human; settings: 10 min or 60 min incubation; λex=405 nm, λem=457/60 nm; 10,000 cells
Method: (§4) Flow cytometry assays were used to assess the applicability of the Q3NI probe to rapidly detect and quantify tumor cells containing hNQO1. See, FIG. 8. The probe was incubated in a suspension of HT-29, A549, H596, and H446 (a small-cell lung carcinoma known to be devoid of hNQO1 activity) cells for either 10 min or 60 min, and a flow cytometer was used to measure fluorescence (λex=405 nm, λem=457/60 nm) in 10,000 individual cells. […] Importantly, the sustained low fluorescence observed with the H446 cells (FIG. 8) points to the intracellular stability of Q3NI (lack of nonspecific activation).

H446 [10] = test: Flow cytometry assay of Q3NI activation; type: cell-based, human; settings: 10 min or 60 min incubation; λex=405 nm, λem=457/60 nm; 10,000 cells
Method: as §4

H596 [11] = test: Flow cytometry assay of Q3NI activation; type: cell-based, human; settings: 10 min or 60 min incubation; λex=405 nm, λem=457/60 nm; 10,000 cells
Method: as §4

HT-29 [12] = test: Flow cytometry assay of Q3NI activation; type: cell-based, human; settings: 10 min or 60 min incubation; λex=405 nm, λem=457/60 nm; 10,000 cells
Method: as §4

A549 cells [13] = test: Wide-field fluorescence imaging of fixed cells; type: cell-based, human; settings: 10 min exposure
Text: as §2

H596 cells = test: Wide-field fluorescence imaging of fixed cells; type: cell-based, human; settings: 10 min exposure
Text: as §2

HT-29 cells = test: Wide-field fluorescence imaging of fixed cells; type: cell-based, human; settings: 10 min exposure
Text: as §2

A549 cells [14] = test: 2-photon microscopy of living cells; type: cell-based, human; settings: 2.0×10^−5 M Q3NI in complete growth medium
Text: (§5) Multiphoton (MP) microscopy imaging of cells and tissues may be more advantageous than traditional fluorescence microscopy, because use of the characteristic long-wavelength photons offers higher fluorophore and cellular photostability that provides extended imaging duration, less background signal from out-of-focus excitation and scattering events, and deeper penetration depth. In addition, MP imaging is ideal for direct observation of targets in their physiological environment and ex vivo thick-specimen sampling where 2D and 3D maps can be generated. […] As before, the signal appears somewhat heterogeneous throughout the cytosolic space of the HT-29 and A549 cells due to NI accumulation in acidic organelles. To ensure Q3NI and NI had little effect on cell health, cells were incubated in a 2.0×10^−5 M Q3NI solution in complete growth medium for 1 h and 1 day, and then cell viability was assessed with a trypan blue assay. After 1 h, cell viability for HT-29, A549, and H596 was 97.7%, 98.8%, and 100%, while it was 97.7%, 98.7%, and 98.4% after 24 h.

H446 [15] = test: 2-photon microscopy of living cells; type: cell-based, human; settings: 2.0×10^−5 M Q3NI in complete growth medium
Text: as §5

H596 [16] = test: 2-photon microscopy of living cells; type: cell-based, human; settings: 2.0×10^−5 M Q3NI in complete growth medium
Text: as §5

HT-29 cell line = test: 2-photon microscopy of living cells; type: cell-based, human; settings: 2.0×10^−5 M Q3NI in complete growth medium
Text: as §5

A549 [17] = test: Trypan blue cell viability assay; type: cell-based, human; settings: 2.0×10^−5 M Q3NI
Text: as §5

H596 [18] = test: Trypan blue cell viability assay; type: cell-based, human; settings: 2.0×10^−5 M Q3NI
Text: as §5

HT-29 [19] = test: Trypan blue cell viability assay; type: cell-based, human; settings: 2.0×10^−5 M Q3NI
Text: as §5

Compound: CC1(C)C(/C=C/C=C/C=C/C=C2\N(CCCCS(=O)(=O)O)c3ccc4ccccc4c3C2(C)C)=[N+](CCCCS(=O)(=O)[O-])c2ccc3ccccc3c21 [indocyanine green]
fluorescence quantum yield Φ [1]: 0.0028

fluorescence enhancement for NI versus Q3NI ([2]; pH 7.4, 0.1 M PBS): 33 fold | fluorescence quantum yield Φ ([2]; pH 7.4, 0.1 M PBS): 0.23 | Stokes shift ([2]; λmax abs=374, λmax em=490 nm): 116 nm | energy of the first excited singlet state [3]: 3.06 eV | ED, redox potential of the donor ([3]; voltammetric measurements): 1.74 V | secondary amine pKa [4]: ~11 | efflux of reporter from cells / fluorescence retention (fixed samples): no apparent efflux
Compound: CCCCN1C(=O)c2cccc3c(NC(=O)OCCNC)ccc(c23)C1=O [NI]

fluorescent signal as % of the maximum achievable ([5]; after 5 min, in vitro): 22% | released reporter ([5]; after 5 min, in vitro): 220 nM | catalytic constant (kcat) ([5]; apparent, FIG. 7): 0.019 ± 0.001 s⁻¹ | maximum velocity (Vmax) ([5]; apparent, FIG. 7): 0.037±0.002 μmol min^−1 mg·NQO^−1 | Km ([5]; apparent, from time-dependent NI reporter production, FIG. 7, read-out: Michaelis constant (Km)): 3.86 ± 0.79 µM | fluorescence quantum yield Φ ([2]; pH 7.4, 0.1 M PBS): 0.007 | ΔGPeT, energy change for the OeT process ([3]; Rehm-Weller equation): −0.37 eV | EA, redox potential of the acceptor (quinone propionic acid group) ([3]; voltammetric measurements): −1.01 V
Compound: CCCCN1C(=O)c2cccc3c(NC(=O)OCCN(C)C(=O)CC(C)(C)C4=C(C)C(=O)C(C)=C(C)C4=O)ccc(c23)C1=O [Q3NI]
appearance under 365 nm handheld lamp, unaided eye (A549 [6]): fluorescent blue | appearance under 365 nm handheld lamp, unaided eye (H596 [7]): no apparent emission | appearance under 365 nm handheld lamp, unaided eye (HT-29 [8]): fluorescent blue | flow cytometry fluorescence histogram (A549 [9]): high-intensity, unimodal distribution of signals | flow cytometry fluorescence histogram (H446 [10]): minimal fluorescence | flow cytometry fluorescence histogram (H596 [11]): minimal fluorescence | flow cytometry fluorescence histogram (HT-29 [12]): high-intensity, unimodal distribution of signals | average cytosolic signal versus NQO1-negative H596 cells (A549 cells [13]): 9 times | intracellular NI fluorescence signal (H596 cells): minimal signal | average cytosolic signal versus NQO1-negative H596 cells (HT-29 cells): 23 times | average fluorescence signal compared to H596 cells (A549 cells [14]): 13 fold | average fluorescence signal versus H446 cells (A549 cells [14]): 3.66×10^4 fold | fluorescence signal from NI (H446 [15]): minimal signal | fluorescence signal from NI (H596 [16]): minimal signal | cytosolic intensity compared to H446 cells (HT-29 cell line): 4.51×10^4 fold | cytosolic intensity compared to H596 cells (HT-29 cell line): 15 fold | cell viability (A549 [17]; after 1 h): 98.8% | cell viability (A549 [17]; after 24 h): 98.7% | cell viability (H596 [18]; after 1 h): 100% | cell viability (H596 [18]; after 24 h): 98.4% | cell viability (HT-29 [19]; after 1 h): 97.7% | cell viability (HT-29 [19]; after 24 h): 97.7%
